Patent US4863899A, “Biologically active polypeptides” (priority 1987, dated 1989)
Where two headings read alike, the source gives them in different places. Positions of bridges follow the written chain, without caps; N, C: chain ends. Residues, ends and D or L forms follow the SMILES beside them. No end group written: not given here.

Columns and labels:
[1] = tested on: antiserum against peptide III; assay: Radioimmunoassay, inhibition of precipitation of 125I-peptide III; format: binding, rabbit; settings: for inhibition of precipitation of 125I-peptide III, in words: compared with peptide III; for Relative Inhibitory Activity: half-maximal inhibitory concentration relative to peptide III, standard RIA, > = highest concentration tested
Protocol: Rabbits were immunized by subcutaneous injection of 1 mg of conjugate injected subcutaneously at four separate sites. Two booster injections were administered at bi-weekly intervals following the initial injection. The serum used in this study was collected eighty days after the initial injection. An immunoglobulin fraction of this serum was prepared by ammonium sulfate precipitation. The product of antibodies specific for immunizing peptide was monitored with a solid phase enzyme-linked immunoabsorbent assay.
Reactants were mixed in a final volume of 50 microliters of a solution containing: 20 mM sodium phosphate, at pH 7.4; 200 mM NaCl: 40 mM dithiothreitol; 0.1% (w:v) BSA; 0.1% (w:v) NaN3 : ^125 I-peptide III; (10^4 cpm); antiserum at a final dilution of 1/15,000; and other additions, as specified. The reaction was initiated by the addition of antiserum and continued at 23° C. for 90 minutes. An equal volume of 10% formalin-fixed Staphalococcus A (Pansorbin, Calbiochem) was then added and incubation was continued for an additional 30 minutes at 23° C. The immunoadsorbant was removed by sedimentation through a cushion of 10% (w:v) sucrose and the amount of bound ^125 I-peptide III was determined using a gamma counter. Under these conditions, approximately 25% of ^125 I-peptide was bound by antibody in the absence of competitor. The amount of bound peptide III was corrected for non-specific binding measured in the absence of antibody (less than 5% of the total) and expressed as a percentage of maximal binding. Concentrations of competitors were expressed as the amount of peptide III required to give an equivalent inhibition of precipitation.

[2] = biological target: T1, EGF receptors on A-431 human epidermoid carcinoma cells (Homo sapiens, UniProt P00533); assay: Radioreceptor assay, 125I-EGF binding to cells (Example XII)
T1 construct: A-431 human epidermoid carcinoma cells or human foreskin fibroblasts (HFF); endogenous in cells; host or cells: A-431 human epidermoid carcinoma cells
Protocol: (§1) A-431 human epidermoid carcinoma cells or human foreskin fibroblasts (HFF), established from primary cultures, were grown to confluence in 24-well cluster dishes (Costar) in Dulbecco's […] (DMEM, Gibco) containing 10% fetal calf serum (FCS, Hyclone). EGF was radio-iodinated as above to between 4×10^4 and 8×10^4 cpm/ng protein. Cells were incubated at 4° C. for 60 minutes with 1 nM [^125 I]EGF in the presence of inhibitor peptides in DMEM ([…]; 20 mM Hepes) containing 0.1% BSA. Cells were washed 3× with cold buffer, lysed with 0.1 N NaOH, and cell-associated radioactivity was measured (γ-counter). Nonspecific binding assessed in the presence of a 100× excess of cold EGF was less than 5% and 10% of the specific binding for A-431 and HFF cells, respectively.

[3] = biological target: T2, EGF receptors on human foreskin fibroblasts (HFF) (Homo sapiens, UniProt P00533); assay: as above
T2 construct: human foreskin fibroblasts (HFF), established from primary cultures; endogenous in cells; host or cells: human foreskin fibroblasts (HFF), primary-culture derived
Protocol: as §1

[4] = tested on: EGF-induced DNA synthesis in quiescent HFF; assay: Cell proliferation assay, inhibition of EGF-induced mitogenesis; format: cell-based, human; settings: 3H-methylthymidine incorporation in quiescent HFF induced by 1 nM EGF
Protocol: (§2) HFF cells were grown to confluence in 48-well cluster dishes in DMEM-10% FCS and brought to quiescence by starvation for 2 days in DMEM-0.5% FCS. Mitogens and peptides were incubated with cells at 37° C. for 18 hours prior to a 4 hour pulse with 1 μCi [^3 H]methyl-thymidine (NEN) and trichloroacetic acid precipitable radioactivity was determined.

[5] = tested on: TGFα-induced DNA synthesis in quiescent HFF; assay: Cell proliferation assay, inhibition of TGFα-induced mitogenesis; format: cell-based, human; settings: 3H-methylthymidine incorporation in quiescent HFF induced by 1 nM TGFα
Protocol: as §2

anti-KLH-peptide 1 IgG = assay: Solid phase RIA, 125I anti-KLH-peptide 1 IgG on BSA-peptide 1; format: binding, rabbit
Protocol: TGF peptide 1 was coupled to keyhole limpet hemocyanin (KLH) or bovine serum albumin (BSA) by thiol/maleimide linkage (King et al. (1979) J. Immunol. Methods 28, pp. 201-206). Carrier-peptide complexes were purified by gel filtration. An average of 60 moles peptide/mole KLH and 20 moles peptide/mole BSA was achieved. Rabbits were immunized with the KLH-peptide 1 conjugate by multiple subcutaneous (s.c.) and intramuscular (i.m.) injections of 2 mg protein in complete Freund's adjuvant. Rabbits were boosted s.c. every two weeks with the immunogen in incomplete Freund's adjuvant. The IgG fraction of the antiserum after 5 boosts was used for immunoassays and radiolabeled using Na^125 I (NEN) and Enzymobeads (Bio-Rad) to 4×10^5 cpm/μg protein. Polyvinyl chloride 96-well plates (Costar) were coated with 200 μg/mL BSA-peptide 1 conjugate and countercoated with 10% normal rabbit serum in phosphate-buffered saline. Plates were incubated for 4 hours at 37° C. with [^125 I]anti-KLH-peptide 1 IgG (50,000 cpm/well) in the presence or absence of inhibitors, washed and individual wells were counted.

second degree burns [6] = assay: Wound healing test on second degree burns (Example VI); format: in vivo, piglets; settings: Pig 3, right side, 9 days post-burn
fetal rat long bones = assay: Bone resorption in vitro, 45Ca release; format: cell-based
Protocol: Synthetic rat TGF was prepared as described above in Example V. Purity of the protein was confirmed by sodium dodecyl sulfate-polyacrylamide gel electrophoresis, amino acid analysis, and reverse phase high-performance liquid chromatography. The biological activity of TGF preparations and synthetic TGF was monitored by means of an EGF radioreceptor assay. (Todaro et al. (1976) Nature 264, 26.) Bone resorption was assessed by measuring the release of ^45 Ca from previously labeled fetal rat long bones. Pregnant rats at the 18th day of gestation were injected with 200 μCi of ^45 Ca. (Raisz (1975) J. Clin. Invest. 44, 103.) The mothers were killed on the 19th day of gestation, and the fetuses were removed. The mineralized shafts of the radii and ulnae were dissected free of surrounding tissue and cartilage and placed in organ culture. The bones were incubated in BGJb medium (Irvine Scientific) for 24 hours at 37° C. in a humidified atmosphere of 5 percent of CO2 and 95 percent air to allow for the exchange of loosely complexed ^45 Ca. The bones were then cultured for 48 to 120 hours in BGJb medium supplemented with 5 percent fetal calf serum (KC Biologicals) containing control or test substances. […] Statistical significance was determined with Student's t test for unpaired data.

antibody to TGF peptide = format: binding; settings: 125I-labeled TGF peptide
normal rat kidney cells = format: cell-based; settings: on a ng equivalent basis
second degree burns [7] = assay: Wound healing of second degree burns, planimetry (Example VII); format: in vivo, Yorkshire piglet; settings: once a day, after 7 days
Protocol: Another experiment was performed to measure the effect of the analog of human TGF described above on the healing of second degree burns. The experimental conditions were similar to those described above. However, the following changes were made in the procedures. One Yorkshire piglet was anesthetized with Ketamine and each of 12 burns was made using the template for 11 seconds per burn. After each blister was removed, the wounds were treated once a day with one of the following:
After 7 days, the eschar was removed.

[8] = A-431 cells, read-out: IC50, inhibition of 125I-EGF binding
[9] = 1 nM 125I-EGF, read-out: Binding IC50 (M) HFF

## VVSHFNKCPDSHT [Peptide I]
[1]
  inhibition of precipitation of 125I-peptide III, in words: ineffective as a competitor
  Relative Inhibitory Activity: > 1500

## CHSGYVGVRC (cysteine pairing not given here) [Peptide II]
[1]
  highest concentration without inhibition of precipitation of 125I-peptide III: > 1.1 µM
  Relative Inhibitory Activity: > 1500

## CHSGYVGVRCEHADLLA (cysteine pairing not given here) [Peptide III]
[1]
  Relative Inhibitory Activity: 1

## CC(=O)N[C@H]1CSSC[C@@H](C(N)=O)NC(=O)[C@H](CCCNC(=N)N)NC(=O)[C@H](C(C)C)NC(=O)CNC(=O)[C@H](C(C)C)NC(=O)[C@H](Cc2ccc(O)cc2)NC(=O)CNC(=O)[C@H](CO)NC(=O)[C@H](Cc2c[nH]cn2)NC1=O [Peptide 2] (Ac-CHSGYVGVRC-NH2; disulfide 1-10)
[2]; A-431 cells
  binding potency as % of EGF or TGF-α: approximately 0.02%
[2]; [8]
  IC50: 4e-06 M
[3]; [9]
  IC50: 2e-06 M
[4]
  IC50: 5000 nM
[5]
  IC50: 3000 nM

## Ac-Cys-His-Ser-Gly-Tyr-Val-Gly-Ala-Arg-Cys-OMe (Ac-CHSGYVGARC-OMe; disulfide 1-10 (inferred)) [Peptide 3]
[2]; 1 nM 125I-EGF, read-out: Binding IC50 (M) A-431
  IC50: 4e-07 M
[2]; A-431 cells
  binding potency as % of EGF or TGF-α: ~0.2%
[2]; [8]
  IC50: 4e-07 M
[3]; [9]
  IC50: 3e-07 M
[4]
  IC50: 600 nM
[5]
  IC50: 500 nM

## CC(C)[C@@H]1NC(=O)CNC(=O)[C@H](C(C)C)NC(=O)[C@H](Cc2ccc(O)cc2)NC(=O)CNC(=O)[C@H](CO)NC(=O)[C@H](Cc2c[nH]cn2)NC(=O)[C@@H](N)CSSC[C@@H](C(=O)O)NC(=O)[C@H](CCCNC(=N)N)NC1=O [Peptide 1] (H-CHSGYVGVRC-OH; disulfide 1-10)
anti-KLH-peptide 1 IgG
  inhibition of antibody reaction with BSA-TGF peptide: inhibited in a concentration-dependent fashion
[2]
  IC50: 8e-05 M
[2]; at >10^-6 M
  inhibition of 125I-EGF binding to A-431 cells, in words: partially inhibited
[3]
  IC50: 6e-05 M
[4]
  IC50: > 10000 nM
[5]
  IC50: > 10000 nM

## synthetic rTGF: rat TGF of the formula of Example II made by stepwise solid-phase synthesis, purified to homogeneity
Second degree burns [6]; 0.1 μg/ml in Silvadene
  approximate percentage of burn epithelialized: 90%
Second degree burns [6]; 0.5 μg/ml in Silvadene
  approximate percentage of burn epithelialized: 65%
Second degree burns [6]; 10 μg/ml in Silvadene
  approximate percentage of burn epithelialized: 90%
[1]
  inhibition of precipitation of 125I-peptide III, in words: equally effective
anti-KLH-peptide 1 IgG
  inhibition of antibody reaction with BSA-TGF peptide: slightly less
Fetal rat long bones
  bone resorption during the first 48 hours of bone culture: no significant bone resorption
  effective concentrations for bone resorption compared with EGF: about one order of magnitude less than EGF
  time required to stimulate bone resorption: at least 72 hours
Fetal rat long bones; three separate experiments (Example XIII)
  concentrations that stimulated bone resorption: greater than 2 ng EGF equivalents/ml
Fetal rat long bones; three separate experiments (Example XIV)
  concentrations that stimulated bone resorption: greater than 2 ng of EGF equivalents per milliliter
Antibody to TGF peptide
  antigen concentration for 50% displacement of antigen from antibody: 0.2-0.3 ng equivalents of EGF
Normal rat kidney cells
  colonies in soft agar: 154 colonies

## hEGF: Human EGF
Second degree burns [7]; 0.1 μg/ml in Silvadene
  PERCENTAGE OF WOUND HEALED Burn A: 17 percentage
  PERCENTAGE OF WOUND HEALED Burn B: 14 percentage
Second degree burns [7]; 1 μg/ml in Silvadene
  PERCENTAGE OF WOUND HEALED Burn A: 14 percentage
  PERCENTAGE OF WOUND HEALED Burn B: 17 percentage
